This assay concerns CD2F1 mice, L1210 leukemia ip, survival T/C. The assay is described as follows: NCI In Vivo Anticancer Drug Screen. Data for tumor model L1210 Leukemia (intraperitoneal) in CD2F1 (CDF1) mice. The settings on record: higher = longer survival. The essentials:
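In this screen, transplantable tumors were grown in mice given either the compound or its vehicle. Results were expressed as the treated measurement relative to the control measurement.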

[1] abbreviates: endpoint: mean survival time, dose: 25.0 mg/kg/injection, schedule: Q04DX003 (ip), vehicle: saline with Tween-80.
Setting [2] is: endpoint: mean survival time, dose: 100.0 mg/kg/injection, schedule: Q04DX003 (ip), vehicle: saline with Tween-80.
Where [3] appears, read: endpoint: mean survival time, dose: 200.0 mg/kg/injection, schedule: Q04DX003 (ip), vehicle: saline with Tween-80.
Setting [4] is: endpoint: mean survival time, dose: 400.0 mg/kg/injection, schedule: Q04DX003 (ip), vehicle: saline with Tween-80.
[5] abbreviates: endpoint: mean survival time, dose: 6.25 mg/kg/injection, schedule: Q01DX009 (ip), vehicle: saline with Tween-80.
Where [6] appears, read: endpoint: mean survival time, dose: 100.0 mg/kg/injection, schedule: Q01DX009 (ip), vehicle: saline with Tween-80.
Setting [7] is: endpoint: mean survival time, dose: 100.0 mg/kg/injection, schedule: Q04DX003 (ip), vehicle: saline.
The mark [8] stands for this setting: endpoint: mean survival time, dose: 200.0 mg/kg/injection, schedule: Q04DX003 (ip), vehicle: saline.

Values joined by “and” are separate entries in the source; they are usually repeats but may differ in a detail not shown here. Equal entries are not always repeated. Toxic doses and inconclusive results are not listed.

`CCN(CC)CCC(=O)Nc1cccc2c1C(=O)c1c(c(O)c3ccccc3c1O)C2=O`: the T/C (endpoint: mean survival time, dose: 6.0 mg/kg/injection, schedule: Q04DX003 (ip), vehicle: saline with Tween-80) is 100 % of control; the T/C (endpoint: mean survival time, dose: 12.0 mg/kg/injection, schedule: Q04DX003 (ip), vehicle: saline with Tween-80) was 100 % of control; the T/C (endpoint: mean survival time, dose: 24.0 mg/kg/injection, schedule: Q04DX003 (ip), vehicle: saline with Tween-80) is 100 % of control; the T/C (endpoint: mean survival time, dose: 48.0 mg/kg/injection, schedule: Q04DX003 (ip), vehicle: saline with Tween-80) was 103 % of control.

Consider `O=C1CC2CCC1C2Cl` (centres undefined), for which the T/C runs as follows: (endpoint: mean survival time, dose: 6.25 mg/kg/injection, schedule: Q04DX003 (ip), vehicle: saline with Tween-80) 101 % of control; (endpoint: mean survival time, dose: 12.5 mg/kg/injection, schedule: Q04DX003 (ip), vehicle: saline with Tween-80) 113 % of control; under setting [1], 97 % of control; (endpoint: mean survival time, dose: 50.0 mg/kg/injection, schedule: Q04DX003 (ip), vehicle: saline with Tween-80) 97 % of control.

With `c1cc2c3c(c4sc5ccccc5c4cc3c1)CC2`, the T/C is 101 % of control (endpoint: mean survival time, dose: 12.5 mg/kg/injection, schedule: Q04DX003 (ip), vehicle: other); 115 % of control (endpoint: mean survival time, dose: 25.0 mg/kg/injection, schedule: Q04DX003 (ip), vehicle: other); 108 % of control (endpoint: mean survival time, dose: 50.0 mg/kg/injection, schedule: Q04DX003 (ip), vehicle: other); 115 % of control (endpoint: mean survival time, dose: 100.0 mg/kg/injection, schedule: Q04DX003 (ip), vehicle: other); 108 % of control (endpoint: mean survival time, dose: 200.0 mg/kg/injection, schedule: Q04DX003 (ip), vehicle: other).

As for `CCOC(=O)CCC(NC(=O)c1ccc(N(C=O)CCOC=O)cc1)C(=O)OCC` (centres undefined), the T/C under setting [2] was 97 % of control, the T/C under setting [3] is 96 % of control and the T/C under setting [4] was 96 % of control.

For the molecule `CC1=C(C)C(=O)O[C@@H]([C@](C)(O)[C@]2(O)CC[C@@]3(O)[C@@H]4C[C@H]5O[C@]56CC=CC(=O)[C@]6(C)[C@H]4CC[C@]23C)C1`, the T/C was 104 % of control (endpoint: mean survival time, dose: 3.12 mg/kg/injection, schedule: Q01DX009 (ip), vehicle: saline with Tween-80); 112 % of control (endpoint: mean survival time, dose: 3.12 mg/kg/injection, schedule: Q01DX009 (ip), vehicle: saline); 105 % of control under setting [5]; 123 % of control (endpoint: mean survival time, dose: 6.25 mg/kg/injection, schedule: Q01DX009 (ip), vehicle: saline); 112 % of control (endpoint: mean survival time, dose: 12.5 mg/kg/injection, schedule: Q01DX009 (ip), vehicle: saline); 107 % of control (endpoint: mean survival time, dose: 25.0 mg/kg/injection, schedule: Q01DX009 (ip), vehicle: saline with Tween-80). Besides, the T/C reads like this: (endpoint: mean survival time, dose: 25.0 mg/kg/injection, schedule: Q01DX009 (ip), vehicle: saline) 110 % of control; (endpoint: mean survival time, dose: 50.0 mg/kg/injection, schedule: Q01DX009 (ip), vehicle: saline with Tween-80) 115 % of control; (endpoint: mean survival time, dose: 50.0 mg/kg/injection, schedule: Q01DX009 (ip), vehicle: saline) 98 % of control; under setting [6], 107 % of control; (endpoint: mean survival time, dose: 100.0 mg/kg/injection, schedule: Q01DX009 (ip), vehicle: saline) 93 % of control.

On to `CC(=O)NC(C)C(=O)NC1C(C)OC(=O)C2=C(O)CC(O)C(O)C21` (centres undefined), for which the T/C by setting is: under setting [2], 92 % of control; under setting [3], 100 % of control; under setting [4], 97 % of control.

As to `Clc1ccc(Nc2ccccc2)cc1`, the T/C (endpoint: mean survival time, dose: 100.0 mg/kg/injection, schedule: Q01DX001 (ip), vehicle: other) is 90 % of control; the T/C (endpoint: mean survival time, dose: 200.0 mg/kg/injection, schedule: Q01DX001 (ip), vehicle: other) is 90 % of control; the T/C (endpoint: mean survival time, dose: 400.0 mg/kg/injection, schedule: Q01DX001 (ip), vehicle: other) was 90 % of control.

With `CCCCCCCCCCCCCCCCCC[N+]1(CC)CCCCC1`, the T/C is 98 % of control (endpoint: mean survival time, dose: 0.09 mg/kg/injection, schedule: Q01DX009 (ip), vehicle: saline); 98 % of control (endpoint: mean survival time, dose: 0.19 mg/kg/injection, schedule: Q01DX009 (ip), vehicle: saline); 101 % of control (endpoint: mean survival time, dose: 0.39 mg/kg/injection, schedule: Q01DX009 (ip), vehicle: saline); 98 % of control (endpoint: mean survival time, dose: 0.78 mg/kg/injection, schedule: Q01DX009 (ip), vehicle: saline).

Turning to `C[n+]1c(/C=C/c2ccc([N+](=O)[O-])cc2)ccc2ccccc21`, the T/C under setting [5] is 98 % of control; the T/C (endpoint: mean survival time, dose: 12.5 mg/kg/injection, schedule: Q01DX009 (ip), vehicle: saline with Tween-80) was 102 % of control; the T/C under setting [1] is 96 % of control.

Consider `CCCCCn1c(CN2CCCCC2)nc2c1-c1ccccc1C(=O)C2=O`, for which the T/C reads like this: under setting [2], 96 % of control; under setting [3], 103 % of control; under setting [4], 103 % of control.

Turning to `CC1CCCC/C1=N/O` (centres undefined), the T/C under setting [7] is 101 % of control; the T/C under setting [8] is 101 % of control; the T/C (endpoint: mean survival time, dose: 400.0 mg/kg/injection, schedule: Q04DX003 (ip), vehicle: saline) is 101 % of control.

As to `O=C(O)C1CCc2c(cnn2-c2ccccc2)C1` (centres undefined), the T/C reads like this: (endpoint: mean survival time, dose: 100.0 mg/kg/injection, schedule: Q04DX002 (ip), vehicle: saline with Tween-80) 88 % of control; (endpoint: mean survival time, dose: 200.0 mg/kg/injection, schedule: Q04DX002 (ip), vehicle: saline with Tween-80) 100 % of control; (endpoint: mean survival time, dose: 400.0 mg/kg/injection, schedule: Q04DX002 (ip), vehicle: saline with Tween-80) 92 % of control.

Take `COC1=C2CCCC2=[N+]2CCCCC2C1` (centres undefined): the T/C runs as follows: under setting [7], 96 % of control; under setting [8], 96 % of control.

As to `CC1=C(N2CC2)C(=O)C2=C(C1=O)N1CC3C(N3C)C1(O)C2COC(N)=O` (centres undefined), the T/C is, setting by setting: (endpoint: mean survival time, dose: 3.5 mg/kg/injection, schedule: Q01DX001 (ip), vehicle: carboxymethylcellulose (CMC)) 122 % of control; (endpoint: mean survival time, dose: 5.25 mg/kg/injection, schedule: Q01DX001 (ip), vehicle: carboxymethylcellulose (CMC)) 151 % of control; (endpoint: mean survival time, dose: 7.0 mg/kg/injection, schedule: Q01DX001 (ip), vehicle: carboxymethylcellulose (CMC)) 119 % of control.

Consider `CCCCOC(=O)CCCC(=O)OCCCC`, for which the T/C reads like this: under setting [6], 108 % of control; under setting [2], 95 % of control; (endpoint: mean survival time, dose: 200.0 mg/kg/injection, schedule: Q01DX009 (ip), vehicle: saline with Tween-80) 104 % of control; under setting [3], 93 % of control; (endpoint: mean survival time, dose: 400.0 mg/kg/injection, schedule: Q01DX009 (ip), vehicle: saline with Tween-80) 103 % of control; under setting [4], 95 % of control.

Turning to `NC(N)=NS(=O)(=O)c1ccc(NCc2c3ccccc3nc3ccccc23)cc1`, the T/C (endpoint: median survival time, dose: 50.0 mg/kg/injection, schedule: Q01DX005 (ip), vehicle: Klucel (hydroxypropylcellulose) (HPC)) was 150 % of control; the T/C (endpoint: median survival time, dose: 172.8 mg/kg/injection, schedule: Q01DX005 (ip), vehicle: Klucel (hydroxypropylcellulose) (HPC)) was 178 % of control; the T/C (endpoint: median survival time, dose: 200.0 mg/kg/injection, schedule: Q01DX005 (ip), vehicle: Klucel (hydroxypropylcellulose) (HPC)) was 153 % of control; the T/C (endpoint: median survival time, dose: 400.0 mg/kg/injection, schedule: Q01DX005 (ip), vehicle: Klucel (hydroxypropylcellulose) (HPC)) was 172 % of control; the T/C (endpoint: median survival time, dose: 480.0 mg/kg/injection, schedule: Q01DX005 (ip), vehicle: Klucel (hydroxypropylcellulose) (HPC)) is 150 % of control; the T/C (endpoint: median survival time, dose: 800.0 mg/kg/injection, schedule: Q01DX005 (ip), vehicle: Klucel (hydroxypropylcellulose) (HPC)) was 178 % of control and 182 % of control. Where the note is “endpoint: median survival time, dose: 1333.33 mg/kg/injection, schedule: Q01DX005 (ip), vehicle: Klucel (hydroxypropylcellulose) (HPC)”, the T/C is 187 % of control.

As for `O=C1c2ccccc2C(=O)c2c1cccc2N1CCOCC1`, the T/C (endpoint: mean survival time, dose: 25.0 mg/kg/injection, schedule: Q04DX002 (ip), vehicle: Klucel (hydroxypropylcellulose) (HPC)) is 96 % of control; the T/C (endpoint: mean survival time, dose: 50.0 mg/kg/injection, schedule: Q04DX002 (ip), vehicle: Klucel (hydroxypropylcellulose) (HPC)) is 102 % of control; the T/C (endpoint: mean survival time, dose: 100.0 mg/kg/injection, schedule: Q04DX002 (ip), vehicle: Klucel (hydroxypropylcellulose) (HPC)) was 102 % of control; the T/C (endpoint: mean survival time, dose: 200.0 mg/kg/injection, schedule: Q04DX002 (ip), vehicle: Klucel (hydroxypropylcellulose) (HPC)) was 96 % of control.

As for `CC1(C)OCC(C(O)C(OC(=O)c2ccccc2)C2COC(C)(C)O2)O1` (centres undefined), the T/C by setting is: (endpoint: mean survival time, dose: 100.0 mg/kg/injection, schedule: Q01DX001 (ip), vehicle: saline with Tween-80) 106 % of control; (endpoint: mean survival time, dose: 200.0 mg/kg/injection, schedule: Q01DX001 (ip), vehicle: saline with Tween-80) 94 % of control; (endpoint: mean survival time, dose: 400.0 mg/kg/injection, schedule: Q01DX001 (ip), vehicle: saline with Tween-80) 105 % of control.

For the origin of these results see PubChem BioAssay AID256 (DTP/NCI, 2004).
